The text below walks through data of patent US20110160136A1, “POLYPHENOLS FOR THE TREATMENT OF CARTILAGE DISORDERS” (NESTEC S.A., priority 2008, published 2011).

For this assay, the system named is Articular cartilage explants. Briefly: IL1β-induced glycosaminoglycan (GAG) release from 35S-labelled articular cartilage explants. The following applies: polyphenolic compounds extracted e.g. from rosemary plants; qualitative statement. In kind it is cell-based, cows. The text has this:
Articular cartilage explants are dissected out of the metacarpophalangeal joint of old cows (8-10 years). The skin is removed from the feet. The articulation is opened transversally. Intra articular ligaments are transected. Full thickness slices of cartilage are dissected out and put in a Petri dish containing DMEM supplemented with 20% FBS ([…]) and antibiotics (penicillin, streptomycin and gentamycin). Under the hood, disks of cartilage obtained by using a biopsy punch (6 mm in diameter) are distributed between the wells of a 96-wells plate containing 200 μl of medium (DMEM+20% FBS, 1% penicillin/streptomycin, 0.1% gentamycin) per well. Finally, plates are put into an incubator (37° C./5% CO2).
Five days after their harvest, the explants are divided into several different treatment conditions:
1—negative control: the wells contain only culture medium. 2—positive stimulatory control: Interleukin 1β(IL1β) is added to the media at the concentration of 50 ng per ml. This cytokine is used to stimulate the catabolism and to induce inflammation. 3—positive inhibitory control: d15-PGJ2 (a peroxisome proliferator activated receptor γ agonist) and hymenialdisine are co-added, to the medium, with IL1β, to counteract the catabolic effect of this cytokine (Sabatini M, et al. (2002) Osteoarthritis Cartilage 10(9): 673-679; Scher J U, et al. (2005) Clin Immunol 114(2): 100-109; Boyault S, et al. (2001) Febs Letters 501(1): 24-30) 4, 5, 6, 7, 8 (if present)—tested compounds: these conditions test the effects of three concentrations of a polyphenol in presence of IL1β.
The explants undergo these treatments for 72 hours in the incubator (37° C., 5% CO2). The following protocol is based on the disclosure of Campbell et al. (1984) Arch Biochem Biophys 234(1): 275-289 and Hascall V C, et al. (1983) ArchBiochem Biophys 224(1): 206-223 and was carried out 48 hours after the harvest of the explants,
Sulphur 35 (35S) was added to the medium to be incorporated into newly synthesized polysulfated glycosaminoglycans within the extracellular matrix of the explants. After 72 hours, several washes were performed to eliminate the non-incorporated radioactivity. The explants were then treated for 72 hours, after which the supernatants were collected and the amount of radioactivity released in the medium was measured with a beta counter, as a marker of glycosaminoglycan (GAG) catabolism. The radioactivity present in the explants was also measured and used to normalize the amount of radioactivity released in the media. The radioactivity was expressed in DPM ([…]) and the GAG release was assessed by the following formula:
GAG release=radioactivity in the supernatants/(radioactivity in the supernatants+radioactivity in the explants)

Turning to `O=c1c(O)c(-c2ccc(O)cc2)oc2cc(O)cc(O)c12` [kaempferol], the anti-catabolic potential entry was “anti-catabolic potential”.

With `O=C(/C=C/c1ccc(O)c(O)c1)O[C@H](Cc1ccc(O)c(O)c1)C(=O)O` [rosmarinic acid], the anti-catabolic potential result was “anti-catabolic potential”.

As to `COc1cc2oc(-c3ccc(O)cc3)cc(=O)c2c(O)c1OC` [cirsimaritin], the anti-catabolic potential entry was “anti-catabolic potential”.

As to `COc1c(OC2OC(COC(=O)C=Cc3ccc(O)cc3)C(O)C(O)C2O)cc2oc(-c3ccc(O)c(O)c3)cc(=O)c2c1O` (stereo not shown) [6″-Coumaroylnepitrin], the anti-catabolic potential entry is recorded as “anti-catabolic potential”.

On to `O=c1cc(-c2ccc(O)c(O)c2)oc2cc(O)cc(O)c12` [luteolin], for which the anti-catabolic potential entry is given as “anti-catabolic potential”.

As for `COc1c(O)cc2oc(-c3ccc(O)c(O)c3)cc(=O)c2c1O` [6-methoxy-luteolin], the anti-catabolic potential entry is “anti-catabolic potential”.

As for `COc1cc(C=CC(=O)OCC2OC(Oc3cc4oc(-c5ccc(O)c(O)c5)cc(=O)c4c(O)c3OC)C(O)C(O)C2O)ccc1O` (stereo not shown) [6″-Feruloylnepitrin], the anti-catabolic potential result is recorded as “anti-catabolic potential”.

Regarding `CC(C)c1cc2c(c(O)c1O)[C@@]13CCCC(C)(C)[C@@H]1C[C@@H]2OC3=O` [carnosol], the anti-catabolic potential result is recorded as “anti-catabolic potential”.

Take `CC(C)c1cc2c(c(O)c1O)[C@@]13CCCC(C)(C)[C@@H]1[C@H](OC3=O)[C@H]2O` [rosmanol]: the anti-catabolic potential entry is given as “anti-catabolic potential”.

Regarding `CC(C)c1cc2c(c(O)c1O)C13CCCC(C)(C)C1C(OC3=O)C2O` (stereo not shown) [7-epirosmannol], the anti-catabolic potential result is listed as “anti-catabolic potential”.
